Assays:
[1] = biological target: T1, Arginase-2, mitochondrial (Homo sapiens, UniProt P78540); assay: Competitive inhibition of human ARG2
T1 sequence (P78540 whole entry): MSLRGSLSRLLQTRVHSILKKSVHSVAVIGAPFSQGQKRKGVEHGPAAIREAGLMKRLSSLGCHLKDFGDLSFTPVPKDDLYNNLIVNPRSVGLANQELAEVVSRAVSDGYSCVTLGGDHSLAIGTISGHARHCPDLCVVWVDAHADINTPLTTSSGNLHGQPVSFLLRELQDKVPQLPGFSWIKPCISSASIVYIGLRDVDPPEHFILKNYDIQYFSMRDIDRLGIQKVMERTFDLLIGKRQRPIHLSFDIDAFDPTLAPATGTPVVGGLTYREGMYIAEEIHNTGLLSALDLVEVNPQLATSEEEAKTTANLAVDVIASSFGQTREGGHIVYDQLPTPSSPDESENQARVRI

[2] = biological target: Indoleamine 2,3-dioxygenase 1 (Homo sapiens, UniProt P14902); assay: Inhibition of human IDO1
Chain of Indoleamine 2,3-dioxygenase 1 (P14902 whole entry): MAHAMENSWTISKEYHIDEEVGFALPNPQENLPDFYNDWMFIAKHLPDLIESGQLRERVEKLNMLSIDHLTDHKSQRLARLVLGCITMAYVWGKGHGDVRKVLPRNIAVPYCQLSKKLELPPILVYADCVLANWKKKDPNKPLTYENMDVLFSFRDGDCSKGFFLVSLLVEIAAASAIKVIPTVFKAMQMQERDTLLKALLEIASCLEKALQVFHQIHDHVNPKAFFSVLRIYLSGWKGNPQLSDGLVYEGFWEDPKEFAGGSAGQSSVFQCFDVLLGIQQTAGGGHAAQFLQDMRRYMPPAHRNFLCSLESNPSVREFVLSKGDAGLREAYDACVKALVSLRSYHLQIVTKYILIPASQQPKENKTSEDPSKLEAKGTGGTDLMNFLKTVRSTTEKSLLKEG

Splenocyte = assay: Antiproliferative activity in mouse splenocyte assessed as inhibition of cell proliferation incubated for 72 hrs by MTT assay; type: functional; design: scale not given: the % may be the effect or the level left
[3] = biological target: T2, Ectonucleoside triphosphate diphosphohydrolase 1 (Homo sapiens, UniProt P49961); assay: Inhibition of human NTPDase1
T2 sequence (P49961 whole entry): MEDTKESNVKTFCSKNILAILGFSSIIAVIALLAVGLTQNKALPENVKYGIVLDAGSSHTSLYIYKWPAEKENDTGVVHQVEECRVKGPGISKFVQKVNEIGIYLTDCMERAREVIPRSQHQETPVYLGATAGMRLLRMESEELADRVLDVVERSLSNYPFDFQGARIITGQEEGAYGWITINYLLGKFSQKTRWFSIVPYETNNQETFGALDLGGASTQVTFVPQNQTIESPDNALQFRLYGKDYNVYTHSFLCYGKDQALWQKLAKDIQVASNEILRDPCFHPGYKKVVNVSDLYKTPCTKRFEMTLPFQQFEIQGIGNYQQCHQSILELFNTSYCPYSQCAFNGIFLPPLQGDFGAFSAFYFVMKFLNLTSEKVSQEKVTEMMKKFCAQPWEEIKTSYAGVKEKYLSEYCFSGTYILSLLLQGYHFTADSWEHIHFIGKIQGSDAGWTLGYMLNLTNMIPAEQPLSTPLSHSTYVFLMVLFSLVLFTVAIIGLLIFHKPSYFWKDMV

[4] = Half life in mouse at 2000 mg/kg; type: ADME, organism-based; conditions: in vivo
Arginase-1 = biological target: T3, Arginase-1 (Homo sapiens, UniProt P05089); assay: Inhibition of human ARG1
T3 sequence (P05089 whole entry): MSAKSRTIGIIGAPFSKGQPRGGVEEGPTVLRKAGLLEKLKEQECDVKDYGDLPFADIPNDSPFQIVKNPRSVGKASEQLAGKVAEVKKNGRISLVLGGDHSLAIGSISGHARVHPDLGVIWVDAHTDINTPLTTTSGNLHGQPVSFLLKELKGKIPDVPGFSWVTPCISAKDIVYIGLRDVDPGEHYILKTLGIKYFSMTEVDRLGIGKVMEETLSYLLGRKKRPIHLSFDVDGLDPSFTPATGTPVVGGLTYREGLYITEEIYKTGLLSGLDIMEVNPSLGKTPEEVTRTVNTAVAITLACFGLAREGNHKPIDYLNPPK

Toll-like receptor 8 = biological target: T4, Toll-like receptor 8 (Homo sapiens, UniProt Q9NR97); assay: Agonist activity at human TLR8 expressed in HEK293 cells by reporter gene assay
T4 sequence (Q9NR97 whole entry): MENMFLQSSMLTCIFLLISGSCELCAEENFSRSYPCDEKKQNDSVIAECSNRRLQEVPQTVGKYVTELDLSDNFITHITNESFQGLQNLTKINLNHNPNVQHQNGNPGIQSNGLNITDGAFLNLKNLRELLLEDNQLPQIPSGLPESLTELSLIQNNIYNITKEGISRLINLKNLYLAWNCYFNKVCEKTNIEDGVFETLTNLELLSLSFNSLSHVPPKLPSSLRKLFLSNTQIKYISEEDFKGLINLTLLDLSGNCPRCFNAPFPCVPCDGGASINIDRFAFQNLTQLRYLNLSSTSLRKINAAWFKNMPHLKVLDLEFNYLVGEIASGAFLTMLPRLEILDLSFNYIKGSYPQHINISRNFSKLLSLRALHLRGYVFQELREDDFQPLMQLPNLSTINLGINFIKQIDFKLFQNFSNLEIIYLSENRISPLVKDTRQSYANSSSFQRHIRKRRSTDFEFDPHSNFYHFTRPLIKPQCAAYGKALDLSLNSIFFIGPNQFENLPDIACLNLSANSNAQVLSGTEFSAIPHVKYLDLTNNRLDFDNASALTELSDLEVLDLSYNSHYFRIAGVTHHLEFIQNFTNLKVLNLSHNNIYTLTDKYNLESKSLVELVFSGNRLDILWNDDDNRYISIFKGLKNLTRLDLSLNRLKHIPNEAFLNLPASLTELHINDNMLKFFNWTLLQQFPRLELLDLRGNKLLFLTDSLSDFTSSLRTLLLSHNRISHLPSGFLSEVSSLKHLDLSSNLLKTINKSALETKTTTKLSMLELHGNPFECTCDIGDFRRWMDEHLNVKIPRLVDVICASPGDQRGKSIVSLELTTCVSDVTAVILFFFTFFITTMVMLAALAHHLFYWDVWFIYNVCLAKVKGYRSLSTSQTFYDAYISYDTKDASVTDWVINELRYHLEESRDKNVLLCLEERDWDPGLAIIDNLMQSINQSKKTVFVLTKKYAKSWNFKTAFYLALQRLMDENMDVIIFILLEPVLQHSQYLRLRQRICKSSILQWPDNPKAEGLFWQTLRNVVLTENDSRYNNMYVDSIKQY

[5] = biological target: Programmed cell death protein 1/Programmed cell death 1 ligand 1 (Homo sapiens, UniProt Q15116+Q9NZQ7); assay: Inhibition of PD-1/PD-L1 interaction (unknown origin) incubated for 24 hrs by HTRF assay; type: protein-complex assay
Chain of Programmed cell death protein 1/Programmed cell death 1 ligand 1 (Q15116 whole entry): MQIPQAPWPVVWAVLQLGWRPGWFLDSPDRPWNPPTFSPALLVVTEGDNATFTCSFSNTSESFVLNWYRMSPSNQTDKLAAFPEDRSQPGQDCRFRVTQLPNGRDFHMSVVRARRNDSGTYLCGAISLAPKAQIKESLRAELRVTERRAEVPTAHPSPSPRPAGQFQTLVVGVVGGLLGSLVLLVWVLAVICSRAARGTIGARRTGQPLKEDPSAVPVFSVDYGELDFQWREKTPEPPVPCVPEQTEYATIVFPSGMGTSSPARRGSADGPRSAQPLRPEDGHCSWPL
Chain of Programmed cell death protein 1/Programmed cell death 1 ligand 1 (Q9NZQ7 whole entry): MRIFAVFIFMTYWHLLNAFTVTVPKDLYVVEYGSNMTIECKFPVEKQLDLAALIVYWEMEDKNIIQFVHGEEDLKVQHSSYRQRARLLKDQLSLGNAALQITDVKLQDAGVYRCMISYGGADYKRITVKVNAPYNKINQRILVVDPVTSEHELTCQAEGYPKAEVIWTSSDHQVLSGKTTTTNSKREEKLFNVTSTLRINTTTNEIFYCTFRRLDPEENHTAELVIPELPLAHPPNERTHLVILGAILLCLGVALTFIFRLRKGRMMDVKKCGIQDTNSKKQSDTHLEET

[6] = Half life in rat; type: ADME; conditions: in vivo
[7] = Oral bioavailability in rat; type: ADME, organism-based; conditions: in vivo
MIA PaCa-2 = assay: Antiproliferative activity against human MIA PaCa-2 cells
[8] = biological target: C-X-C chemokine receptor type 4 (Homo sapiens, UniProt P61073); assay: Antagonist activity at CXCR4 receptor in human MIA PaCa-2 cells assessed as reduction in forskolin-stimulated inhibition of cAMP production; type: cell-based
Chain of C-X-C chemokine receptor type 4 (P61073 whole entry): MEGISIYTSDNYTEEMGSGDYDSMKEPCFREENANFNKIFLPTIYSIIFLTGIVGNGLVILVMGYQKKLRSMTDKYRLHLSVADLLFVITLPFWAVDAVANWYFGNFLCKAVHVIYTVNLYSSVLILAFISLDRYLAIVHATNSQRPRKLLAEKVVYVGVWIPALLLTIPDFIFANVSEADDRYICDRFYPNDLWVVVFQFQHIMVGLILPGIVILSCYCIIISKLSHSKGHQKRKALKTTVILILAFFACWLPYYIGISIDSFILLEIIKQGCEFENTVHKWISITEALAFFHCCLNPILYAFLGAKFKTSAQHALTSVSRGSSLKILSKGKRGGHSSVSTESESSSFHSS

Compound: N[C@@H](CSCCB(O)O)C(=O)O
- Ki [1]: 310 nM

Compound: C[C@@]12CCCCC1=C(O)C(=O)c1cc3c(cc12)C(=O)C1=C(C3=O)S(=O)(=O)CCN1
- IC50 [2]: 110 nM

Compound: NC(=O)C[C@H](N)c1nc([C@@H](N)CO)no1
- Activity (Splenocyte): 48.4%

Compound: COc1cc(/C=N/c2nc(-c3cc4ccccc4oc3=O)cs2)cc(OC)c1OC
- IC50 [3]: 50 nM

Compound: Cn1cc(C[C@@H](N)C(=O)O)c2ccccc21 [INDOXIMOD]
- half-life [4]: 10.5 h

Compound: CN[C@@H](CO)C(=O)N1C[C@H](CCCB(O)O)[C@](N)(C(=O)O)C1
- IC50 (Arginase-1): 740 nM

Compound: CCCN(CCC)C(=O)C1=Cc2ccc(-c3ccc(C(=O)N4CCCC4)cc3)cc2N=C(N)C1 [MOTOLIMOD]
- EC50 (Toll-like receptor 8): 100 nM

Compound: Cc1c(Nc2cccc3cc(CNCCO)cnc23)cccc1-c1ccccc1
- IC50 [5]: < 10 nM

Compound: N=C(NO)NCC[C@H](N)C(=O)O [NOR-NOHA]
- half-life [6]: 0.25 h
- bioavailability [7]: 100%

Compound: CCN(CC)CCCC(C)Nc1ccnc2cc(Cl)ccc12 (configuration not stated) [CHLOROQUINE]
- IC50 (MIA PaCa-2): 3500 nM
- EC50 [8]: 6500 nM

Source: ChEMBL document CHEMBL5260837, “Recent advances in small molecule based cancer immunotherapy” (Eur J Med Chem, 2018)
